# Data reported in ChEMBL document CHEMBL4312011, “Synthesis and biological evaluation of triterpenoid thiazoles derived from betulonic acid, dihydrobetulonic acid, and ursonic acid” (Eur J Med Chem, 2020).
# The source made the active and inactive calls. No cut-off for these calls is given here.
# Assays:
# CCRF-CEM [1] = test: Cell cycle arrest in human CCRF-CEM cells assessed as decrease in proportion of cells in S phase at 5 times IC50 measured after 24 hrs by propidium iodide/RNase staining based flow cytometry analysis; assay type: functional
# CCRF-CEM [2] = test: Cell cycle arrest in human CCRF-CEM cells assessed as increase in G2/M phase accumulation at 5 times IC50 measured after 24 hrs by propidium iodide/RNase staining based flow cytometry analysis; assay type: functional
# A549 = test: Cytotoxicity against human A549 cells incubated for 72 hrs by MTS assay; assay type: functional, cell-based; conditions: A549, 72 h
# [3] = Permeability of compound in PBS buffer assessed as permeability coefficient at pH 7.4 incubated for 18 hrs by PAMPA based RF-MS analysis; assay type: ADME; conditions: pH 7.4, 18 h
# CCRF-CEM [4] = test: Induction of apoptosis in human CCRF-CEM cells assessed as activation of caspase 3 at 5 times IC50 concentration measured after 24 hrs by Western blot analysis; assay type: functional, cell-based
# [5] = Microsomal stability in human liver microsomes assessed as parent compound remaining at 2 uM incubated for 30 mins by RF-MS analysis; assay type: ADME, Microsome; conditions: read-out: Stability
# HCT-116 [6] = test: Cytotoxicity against p53 knockout human HCT116 cells incubated for 72 hrs by MTS assay; assay type: functional, cell-based; conditions: HCT-116, 72 h
# [7] = Solubility of compound in 10 % DMSO in water by HPLC-MS analysis; assay type: physicochemical
# [8] = Chemical stability of compound in PBS buffer assessed as parent compound remaining at 2 uM at pH 7.4 and 37 degC incubated for 120 mins by RF-MS analysis; assay type: physicochemical; conditions: read-out: Stability
# CCRF-CEM [9] = test: Cytotoxicity against human CCRF-CEM cells incubated for 72 hrs by MTS assay; assay type: functional, cell-based
# CCRF-CEM [10] = test: Induction of apoptosis in human CCRF-CEM cells assessed as early apoptotic cells at 5 times IC50 concentration measured after 24 hrs by AnnexinV-FITC/propidium iodide staining based flow cytometry analysis (reference value: 2.8 %); assay type: functional
# BJ = test: Cytotoxicity against human BJ cells incubated for 72 hrs by MTS assay; assay type: cell-based
# CCRF-CEM [11] = test: Induction of apoptosis in human CCRF-CEM cells assessed as activation of PARP cleavage at 5 times IC50 concentration measured after 24 hrs by Western blot analysis; assay type: functional, cell-based
# [12] = Cytotoxicity against human K562-TAX cells incubated for 72 hrs by MTS assay; assay type: functional, cell-based
# [13] = Chemical stability of compound in PBS buffer assessed as parent compound remaining at 2 uM at pH 7.4 and 37 degC incubated for 15 mins by RF-MS analysis; assay type: physicochemical; conditions: read-out: Stability
# CCRF-CEM [14] = test: Induction of apoptosis in human CCRF-CEM cells assessed as increase in BAX expression at 5 times IC50 concentration measured after 24 hrs by Western blot analysis; assay type: functional, cell-based
# [15] = Chemical stability of compound in PBS buffer assessed as parent compound remaining at 2 uM at pH 7.4 and 37 degC incubated for 30 mins by RF-MS analysis; assay type: physicochemical; conditions: read-out: Stability
# [16] = Protein binding in human plasma at 10 uM measured after 4 hrs by rapid equilibrium dialysis; assay type: ADME, cell-free; conditions: read-out: PPB (converted)
# [17] = Stability in human plasma assessed as parent compound remaining at 2 uM incubated for 60 mins by RF-MS analysis; assay type: ADME, cell-free; conditions: read-out: Stability
# [18] = Stability in human plasma assessed as parent compound remaining at 2 uM incubated for 15 mins by RF-MS analysis; assay type: ADME, cell-free; conditions: read-out: Stability
# CCRF-CEM [19] = test: Induction of apoptosis in human CCRF-CEM cells assessed as activation of caspase 7 at 5 times IC50 concentration measured after 24 hrs by Western blot analysis; assay type: functional, cell-based
# [20] = Solubility of compound in 0.5 % DMSO in water by HPLC-MS analysis; assay type: physicochemical
# MRC5 = test: Cytotoxicity against human MRC5 cells incubated for 72 hrs by MTS assay; assay type: cell-based; conditions: MRC5, 72 h
# HCT-116 [21] = test: Cytotoxicity against human HCT116 cells incubated for 72 hrs by MTS assay; assay type: functional, cell-based; conditions: HCT-116, 72 h
# [22] = Microsomal stability in human liver microsomes assessed as parent compound remaining at 2 uM incubated for 60 mins by RF-MS analysis; assay type: ADME, Microsome; conditions: read-out: Stability
# CCRF-CEM [23] = test: Induction of mitochondrial membrane depolarization in human CCRF-CEM cells at 5 times IC50 measured after 24 hrs by JC-1 staining based flow cytometry analysis (reference value: 8.4 %); assay type: functional
# CCRF-CEM [24] = test: Induction of apoptosis in human CCRF-CEM cells assessed as late apoptotic cells at 5 times IC50 concentration measured after 24 hrs by AnnexinV-FITC/propidium iodide staining based flow cytometry analysis (reference value: 0.1 %); assay type: functional
# [25] = Stability in human plasma assessed as parent compound remaining at 2 uM incubated for 120 mins by RF-MS analysis; assay type: ADME, cell-free; conditions: read-out: Stability
# [26] = Microsomal stability in human liver microsomes assessed as parent compound remaining at 2 uM incubated for 15 mins by RF-MS analysis; assay type: ADME, Microsome; conditions: read-out: Stability
# CCRF-CEM [27] = test: Induction of apoptosis in human CCRF-CEM cells assessed as increase in caspase 3/7 activity using Ac-DEVD-AMC as substrate at 5 times IC50 concentration measured after 24 hrs by fluorescence assay; assay type: functional, cell-based
# [28] = Solubility of compound in 5 % DMSO in water by HPLC-MS analysis; assay type: physicochemical
# CCRF-CEM [29] = test: Induction of apoptosis in human CCRF-CEM cells assessed as necrotic cells at 5 times IC50 concentration measured after 24 hrs by AnnexinV-FITC/propidium iodide staining based flow cytometry analysis (reference value: 0.1 %); assay type: functional
# CCRF-CEM [30] = test: Induction of apoptosis in human CCRF-CEM cells assessed as activation of procaspase 8 at 5 times IC50 concentration measured after 24 hrs by Western blot analysis; assay type: functional, cell-based
# [31] = Stability in human plasma assessed as parent compound remaining at 2 uM incubated for 30 mins by RF-MS analysis; assay type: ADME, cell-free; conditions: read-out: Stability
# CCRF-CEM [32] = test: Induction of apoptosis in human CCRF-CEM cells assessed as viable cells at 5 times IC50 concentration measured after 24 hrs by AnnexinV-FITC/propidium iodide staining based flow cytometry analysis (reference value: 97 %); assay type: functional
# [33] = Cytotoxicity against human CEM-DNR-bulk cells incubated for 72 hrs by MTS assay; assay type: functional, cell-based
# CCRF-CEM [34] = test: Induction of apoptosis in human CCRF-CEM cells assessed as decrease in Bcl-2 expression at 5 times IC50 concentration measured after 24 hrs by Western blot analysis; assay type: functional, cell-based
# [35] = Chemical stability of compound in PBS buffer assessed as parent compound remaining at 2 uM at pH 7.4 and 37 degC incubated for 60 mins by RF-MS analysis; assay type: physicochemical; conditions: read-out: Stability
# K562 = test: Cytotoxicity against human K562 cells incubated for 72 hrs by MTS assay; assay type: functional, cell-based; conditions: K562, 72 h
# U2OS = test: Cytotoxicity against human U2OS cells incubated for 72 hrs by MTS assay; assay type: functional, cell-based
SMILES,Activity (CCRF-CEM [1]),Activity (CCRF-CEM [2]),IC50 (A549) [µM],log(permeability) [3],"remaining at 0.5 h, 2 µM [5] [%]",IC50 (HCT-116 [6]) [µM],"remaining at 2 h, 2 µM [8] [%]",IC50 (CCRF-CEM [9]) [µM],Activity (CCRF-CEM [10]) [%],IC50 (BJ) [µM],IC50 [12] [µM],"remaining at 0.25 h, 2 µM [13] [%]",Activity (CCRF-CEM [14]),"remaining at 0.5 h, 2 µM [15] [%]","fraction unbound at 4 h, 10 µM [16]","remaining at 1 h, 2 µM [17] [%]","remaining at 0.25 h, 2 µM [18] [%]",IC50 (MRC5) [µM],IC50 (HCT-116 [21]) [µM],"remaining at 1 h, 2 µM [22] [%]",also measured
C=C(C)[C@@H]1CC[C@]2(C(=O)O)CC[C@]3(C)[C@H](CC[C@@H]4[C@@]5(C)Cc6sc(N)nc6C(C)(C)[C@@H]5CC[C@]43C)[C@@H]12,Active,Active,38.4,-5.34,26,48.3,86.9,2.4,20.2,> 50,17.4,99.5,Active,91.3,0.042,97.7,99.5,> 50,36.5,25.8,"Activity (CCRF-CEM [4]): Active; solubility [7]: 89 µM; Activity (CCRF-CEM [11]): Active; Activity (CCRF-CEM [19]): Active; solubility [20]: 26 µM; Activity (CCRF-CEM [23]): 62.2%; Activity (CCRF-CEM [24]): 2.1%; remaining at 2 h, 2 µM [25]: 97.7%; remaining at 0.25 h, 2 µM [26]: 31%; Activity (CCRF-CEM [27]): Active; solubility [28]: 45 µM; Activity (CCRF-CEM [29]): 0.8%; Activity (CCRF-CEM [30]): Active; remaining at 0.5 h, 2 µM [31]: 99.2%; Activity (CCRF-CEM [32]): 76.9%; IC50 [33]: 25.6 µM; Activity (CCRF-CEM [34]): Active; remaining at 1 h, 2 µM [35]: 90.8%; IC50 (K562): > 50 µM; IC50 (U2OS): 48 µM"
CC1(C)CC[C@]2(C(=O)O)CC[C@]3(C)C(=CC[C@@H]4[C@@]5(C)Cc6sc(N)nc6C(C)(C)[C@@H]5CC[C@]43C)[C@@H]2C1,Active,Active,47.7,-7.16,90,33.3,74.9,5.2,12,> 50,18.9,91.2,Active,77,0.011,99.4,99.4,> 50,31,87.1,"solubility [7]: 91 µM; solubility [20]: 27 µM; Activity (CCRF-CEM [23]): 23.4%; Activity (CCRF-CEM [24]): 0.5%; remaining at 2 h, 2 µM [25]: 99.1%; remaining at 0.25 h, 2 µM [26]: 96.8%; Activity (CCRF-CEM [27]): Active; solubility [28]: 45 µM; Activity (CCRF-CEM [29]): 0.1%; Activity (CCRF-CEM [30]): Active; remaining at 0.5 h, 2 µM [31]: 99.2%; Activity (CCRF-CEM [32]): 87.4%; IC50 [33]: 19.8 µM; Activity (CCRF-CEM [34]): Active; remaining at 1 h, 2 µM [35]: 74.8%; IC50 (K562): > 50 µM; IC50 (U2OS): 28.8 µM"
CC(C)[C@@H]1CC[C@]2(C(=O)O)CC[C@]3(C)[C@H](CC[C@@H]4[C@@]5(C)Cc6sc(N)nc6C(C)(C)[C@@H]5CC[C@]43C)[C@@H]12,Active,Active,44.5,-5.34,93.4,47.2,76.3,4.5,3.1,> 50,22.8,99.3,Active,96.1,0.015,99.9,99.3,> 50,32.4,90.8,"Activity (CCRF-CEM [23]): 16.7%; Activity (CCRF-CEM [24]): 0.4%; remaining at 2 h, 2 µM [25]: 99.9%; remaining at 0.25 h, 2 µM [26]: 97.7%; Activity (CCRF-CEM [27]): Active; Activity (CCRF-CEM [29]): 0.1%; Activity (CCRF-CEM [30]): Active; remaining at 0.5 h, 2 µM [31]: 99.6%; Activity (CCRF-CEM [32]): 96.4%; IC50 [33]: 27 µM; Activity (CCRF-CEM [34]): Active; remaining at 1 h, 2 µM [35]: 80.4%; IC50 (K562): 43.8 µM; IC50 (U2OS): 42.9 µM"
